Values joined by “and” are separate entries in the source; they are usually repeats but may differ in a detail not shown here. Identical values can stand only once. Records with an inconclusive call do not appear. *1 amine or outer side, *2 acyl side, *3 side chain or, on linkers, in order; H or OH if unused. Where a SMILES comes first, the peptide text is derived from it. Bridges are numbered along the chain shown (N, C = ends). Roman numbers before positions name the chains, in order. [ ]: non-standard residue; d: D form. Actinocin(9to1) = Cc1c2oc3c(C)ccc(C(=O)[*:1])c3nc-2c(C(=O)[*:2])c(N)c1=O; aThr = C[C@H](O)[C@H](N)C(=O)O; NMeV = CN[C@H](C(=O)O)C(C)C; Sar = CNCC(=O)O

This test has as its system mice, P1798 lymphosarcoma sc, survival or tumor weight T/C. Nature of the test: NCI In Vivo Anticancer Drug Screen. Data for tumor model P1798 Lymphosarcoma (subcutaneous) in unknown mice. On the procedure: The antitumor activity of compounds was measured in mice bearing transplantable tumors. Survival or tumor size were measured and the results are expressed as the measurement made in the treated group (T) divided by the measurement made in the vehicle treated control group (C). The tumor model used in this assay is P1798 Lymphosarcoma (subcutaneous) in unknown mice

Where [1] appears, read: endpoint: mean tumor weight, dose: 50.0 mg/kg/injection, schedule: Q01DX010 (ip), vehicle: carboxymethylcellulose (CMC), higher = larger tumour.
Where [2] appears, read: endpoint: mean tumor weight, dose: 25.0 mg/kg/injection, schedule: Q01DX010 (ip), vehicle: carboxymethylcellulose (CMC), higher = larger tumour.

`S=P(N1CC1)(N1CC1)N1CC1`: the T/C reads like this: (endpoint: mean tumor weight, dose: 0.63 mg/kg/injection, schedule: Q01DX010 (ip), vehicle: saline, higher = larger tumour) 95 % of control; (endpoint: mean tumor weight, dose: 1.25 mg/kg/injection, schedule: Q01DX010 (ip), vehicle: saline, higher = larger tumour) 64 % of control; (endpoint: mean tumor weight, dose: 2.5 mg/kg/injection, schedule: Q01DX010 (ip), vehicle: saline, higher = larger tumour) 24 % of control; (endpoint: median survival time, dose: 0.75 mg/kg/injection, schedule: Q01DX010 (sc), vehicle: water, higher = longer survival) 97 % of control; (endpoint: median survival time, dose: 1.5 mg/kg/injection, schedule: Q01DX010 (sc), vehicle: water, higher = longer survival) 105 % of control; (endpoint: median survival time, dose: 3.0 mg/kg/injection, schedule: Q01DX010 (sc), vehicle: water, higher = longer survival) 103 % of control. Also, the T/C by setting is: (endpoint: median survival time, dose: 6.0 mg/kg/injection, schedule: Q01DX010 (sc), vehicle: water, higher = longer survival) 47 % of control; (endpoint: median survival time, dose: 12.0 mg/kg/injection, schedule: Q01DX010 (sc), vehicle: water, higher = longer survival) 27 % of control.

On to `N=C(N)c1ccc(Nc2ccc(C(=N)N)cc2)cc1`, for which the T/C runs as follows: (endpoint: mean tumor weight, dose: 3.0 mg/kg/injection, schedule: Q01DX010 (ip), vehicle: saline, higher = larger tumour) 105 % of control; (endpoint: mean tumor weight, dose: 6.0 mg/kg/injection, schedule: Q01DX010 (ip), vehicle: saline, higher = larger tumour) 117 % of control; (endpoint: mean tumor weight, dose: 6.25 mg/kg/injection, schedule: Q01DX010 (ip), vehicle: methylcellulose (MC), higher = larger tumour) 66 % of control; (endpoint: mean tumor weight, dose: 12.0 mg/kg/injection, schedule: Q01DX010 (ip), vehicle: saline, higher = larger tumour) 77 % of control; (endpoint: mean tumor weight, dose: 12.5 mg/kg/injection, schedule: Q01DX010 (ip), vehicle: methylcellulose (MC), higher = larger tumour) 77 % of control.

`CCCCn1cnc2c(=S)nc[nH]c21`: the T/C under setting [1] is 78 % of control and the T/C (endpoint: mean tumor weight, dose: 100.0 mg/kg/injection, schedule: Q01DX010 (ip), vehicle: carboxymethylcellulose (CMC), higher = larger tumour) is 43 % of control.

As for `CCNc1nncs1`, the T/C is, setting by setting: (endpoint: mean tumor weight, dose: 18.0 mg/kg/injection, schedule: Q01DX010 (ip), vehicle: carboxymethylcellulose (CMC), higher = larger tumour) 93 % of control; (endpoint: mean tumor weight, dose: 37.0 mg/kg/injection, schedule: Q01DX010 (ip), vehicle: carboxymethylcellulose (CMC), higher = larger tumour) 67 % of control.

With `CCCNc1ncnc2[nH]ncc12`, the T/C (endpoint: mean tumor weight, dose: 5.0 mg/kg/injection, schedule: Q01DX010 (ip), vehicle: water, higher = larger tumour) was 71 % of control and the T/C (endpoint: mean tumor weight, dose: 10.0 mg/kg/injection, schedule: Q01DX010 (ip), vehicle: water, higher = larger tumour) was 54 % of control.

As to `CO[C@H](C(=O)[C@@H](O)[C@@H](C)O)[C@@H]1Cc2cc3cc(OC4CC(OC5CC(O)C(O)C(C)O5)C(O)C(C)O4)c(C)c(O)c3c(O)c2C(=O)[C@H]1OC1CC(OC2CC(OC3CC(C)(O)C(O)C(C)O3)C(O)C(C)O2)C(O)C(C)O1` (some centres not stated), the T/C (endpoint: mean tumor weight, dose: 0.06 mg/kg/injection, schedule: Q01DX011 (ip), vehicle: saline, higher = larger tumour) is 89 % of control and 102 % of control.

Regarding `C[C@]12CCC(=O)C=C1CC[C@H]1[C@@H]3CC[C@](O)(C(=O)CO)[C@@]3(C)C[C@H](O)[C@@]12F`, the T/C by setting is: (endpoint: mean tumor weight, dose: 0.5 mg/kg/injection, schedule: Q01DX011 (sc), vehicle: steriod suspending solution, higher = larger tumour) 76 % of control; (endpoint: mean tumor weight, dose: 1.0 mg/kg/injection, schedule: Q01DX011 (sc), vehicle: steriod suspending solution, higher = larger tumour) 36 % of control; (endpoint: mean tumor weight, dose: 2.0 mg/kg/injection, schedule: Q01DX011 (sc), vehicle: steriod suspending solution, higher = larger tumour) 61 % of control; (endpoint: mean tumor weight, dose: 2.5 mg/kg/injection, schedule: Q01DX015 (ip), vehicle: carboxymethylcellulose (CMC), higher = larger tumour) 103 % of control; (endpoint: mean tumor weight, dose: 3.5 mg/kg/injection, schedule: Q01DX011 (sc), vehicle: steriod suspending solution, higher = larger tumour) 64 % of control; (endpoint: mean tumor weight, dose: 5.0 mg/kg/injection, schedule: Q01DX015 (ip), vehicle: carboxymethylcellulose (CMC), higher = larger tumour) 105 % of control.

For the molecule `COC1=C(N)C(=O)c2nc(-c3nc(C(=O)O)c(C)c(-c4ccc(OC)c(OC)c4O)c3N)ccc2C1=O`, the T/C was 65 % of control (endpoint: mean tumor weight, dose: 0.05 mg/kg/injection, schedule: Q01DX010 (ip), vehicle: other, higher = larger tumour) and 39 % of control (endpoint: mean tumor weight, dose: 0.1 mg/kg/injection, schedule: Q01DX010 (ip), vehicle: other, higher = larger tumour).

Consider `C[C@@H]1C[C@@H]([C@H](O)CC2CC(=O)NC(=O)C2)C(=O)[C@@H](C)C1`, for which the T/C is, setting by setting: (endpoint: mean tumor weight, dose: 1.6 mg/kg/injection, schedule: Q01DX010 (ip), vehicle: water, higher = larger tumour) 86 % of control; (endpoint: mean tumor weight, dose: 3.1 mg/kg/injection, schedule: Q01DX010 (ip), vehicle: water, higher = larger tumour) 96 % of control; (endpoint: mean tumor weight, dose: 6.3 mg/kg/injection, schedule: Q01DX010 (ip), vehicle: water, higher = larger tumour) 96 % of control; (endpoint: mean tumor weight, dose: 12.5 mg/kg/injection, schedule: Q01DX010 (ip), vehicle: water, higher = larger tumour) 98 % of control.

Consider `CCCCCCCCCCCCCCCCC(C(=O)O)C(O)(CC(=O)O)C(=O)O` (configuration not stated), for which the T/C runs as follows: (endpoint: mean tumor weight, dose: 12.5 mg/kg/injection, schedule: Q01DX010 (ip), vehicle: carboxymethylcellulose (CMC), higher = larger tumour) 84 % of control; under setting [2], 87 % of control.

Consider `COc1ccc(-c2c(CC(=O)O)c3cc(OC)ccc3n2Cc2ccc(Cl)cc2)cc1`, for which the T/C was 105 % of control (endpoint: mean tumor weight, dose: 125.0 mg/kg/injection, schedule: Q01DX010 (ip), vehicle: saline, higher = larger tumour); 108 % of control (endpoint: mean tumor weight, dose: 250.0 mg/kg/injection, schedule: Q01DX010 (ip), vehicle: saline, higher = larger tumour); 112 % of control (endpoint: mean tumor weight, dose: 500.0 mg/kg/injection, schedule: Q01DX010 (ip), vehicle: saline, higher = larger tumour); 110 % of control (endpoint: mean tumor weight, dose: 1000.0 mg/kg/injection, schedule: Q01DX010 (ip), vehicle: saline, higher = larger tumour).

As for `C[C@]12CCC(=O)C=C1CC[C@@H]1[C@@H]2C(=O)C[C@@]2(C)[C@H]1CC[C@]2(O)C(=O)CO`, the T/C reads like this: (endpoint: mean tumor weight, dose: 100.0 mg/kg/injection, schedule: Q01DX010 (sc), vehicle: steriod suspending solution, higher = larger tumour) 7 % of control; (endpoint: mean tumor weight, dose: 200.0 mg/kg/injection, schedule: Q01DX010 (sc), vehicle: steriod suspending solution, higher = larger tumour) 1 % of control.

In the case of `C[C@@H]1C[C@H]2CC[C@H](O2)[C@H](C)C(=O)O[C@@H](C)C[C@@H]2CC[C@@H](O2)[C@@H](C)C(=O)O[C@H](C)C[C@H]2CC[C@H](O2)[C@H](C)C(=O)O[C@@H](C)C[C@@H]2CC[C@@H](O2)[C@@H](C)C(=O)O1`, the T/C is, setting by setting: (endpoint: mean tumor weight, dose: 45.0 mg/kg/injection, schedule: Q01DX011 (ip), vehicle: other, higher = larger tumour) 93 % of control; (endpoint: mean tumor weight, dose: 90.0 mg/kg/injection, schedule: Q01DX011 (ip), vehicle: other, higher = larger tumour) 89 % of control; (endpoint: mean tumor weight, dose: 180.0 mg/kg/injection, schedule: Q01DX011 (ip), vehicle: other, higher = larger tumour) 83 % of control; (endpoint: mean tumor weight, dose: 360.0 mg/kg/injection, schedule: Q01DX011 (ip), vehicle: other, higher = larger tumour) 61 % of control.

Turning to `CS(=O)(=O)OCCCl`, the T/C is 89 % of control under setting [2] and 88 % of control under setting [1].

With `Clc1ccc(C(c2ccccc2Cl)C(Cl)Cl)cc1` (configuration not stated), the T/C is, setting by setting: (endpoint: mean tumor weight, dose: 62.5 mg/kg/injection, schedule: Q01DX010 (sc), vehicle: steriod suspending solution, higher = larger tumour) 85 % of control; (endpoint: mean tumor weight, dose: 125.0 mg/kg/injection, schedule: Q01DX010 (sc), vehicle: steriod suspending solution, higher = larger tumour) 73 % of control; (endpoint: mean tumor weight, dose: 250.0 mg/kg/injection, schedule: Q01DX010 (sc), vehicle: steriod suspending solution, higher = larger tumour) 105 % of control; (endpoint: mean tumor weight, dose: 500.0 mg/kg/injection, schedule: Q01DX010 (sc), vehicle: steriod suspending solution, higher = larger tumour) 103 % of control.

Take `O=C1CCC(N2C(=O)c3ccccc3C2=O)C(=O)N1` (configuration not stated): the T/C by setting is: (endpoint: mean tumor weight, dose: 18.75 mg/kg/injection, schedule: Q01DX010 (ip), vehicle: carboxymethylcellulose (CMC), higher = larger tumour) 122 % of control; (endpoint: mean tumor weight, dose: 37.5 mg/kg/injection, schedule: Q01DX010 (ip), vehicle: carboxymethylcellulose (CMC), higher = larger tumour) 68 % of control; (endpoint: mean tumor weight, dose: 75.0 mg/kg/injection, schedule: Q01DX010 (ip), vehicle: carboxymethylcellulose (CMC), higher = larger tumour) 92 % of control; (endpoint: mean tumor weight, dose: 150.0 mg/kg/injection, schedule: Q01DX010 (ip), vehicle: carboxymethylcellulose (CMC), higher = larger tumour) 83 % of control.

With `CCn1cnc2c(=S)nc[nH]c21`, the T/C is 117 % of control (endpoint: mean tumor weight, dose: 7.75 mg/kg/injection, schedule: Q01DX010 (ip), vehicle: carboxymethylcellulose (CMC), higher = larger tumour); 95 % of control (endpoint: mean tumor weight, dose: 15.5 mg/kg/injection, schedule: Q01DX010 (ip), vehicle: carboxymethylcellulose (CMC), higher = larger tumour); 82 % of control (endpoint: mean tumor weight, dose: 31.0 mg/kg/injection, schedule: Q01DX010 (ip), vehicle: carboxymethylcellulose (CMC), higher = larger tumour).

`Cc1c2oc3c(C)ccc(C(=O)N[C@@H]4C(=O)N[C@H](C(C)C)C(=O)N5CCC[C@H]5C(=O)N(C)CC(=O)N(C)[C@@H](C(C)C)C(=O)O[C@H]4C)c3nc-2c(C(=O)N[C@@H]2C(=O)N[C@H](C(C)C)C(=O)N3CCC[C@H]3C(=O)N(C)CC(=O)N(C)[C@@H](C(C)C)C(=O)O[C@H]2C)c(N)c1=O` (I: [aThr][dV]P[Sar][NMeV] / II: [aThr][dV]P[Sar][NMeV]; ester I:1-I:C, II:1-II:C; linker I:N-II:N via Actinocin(9to1)): the T/C (endpoint: mean tumor weight, dose: 2.0 micrograms/kg/injection, schedule: Q01DX010 (ip), vehicle: saline, higher = larger tumour) was 117 % of control and the T/C (endpoint: mean tumor weight, dose: 20.0 micrograms/kg/injection, schedule: Q01DX010 (ip), vehicle: saline, higher = larger tumour) was 46 % of control.

Turning to `COc1cc2c(c(OC)c1OC)-c1ccc(OC)c(=O)cc1[C@@H](NC(C)=O)CC2`, the T/C was 50 % of control (endpoint: mean tumor weight, dose: 0.12 mg/kg/injection, schedule: Q01DX010 (ip), vehicle: saline, higher = larger tumour); 59 % of control (endpoint: mean tumor weight, dose: 0.25 mg/kg/injection, schedule: Q01DX010 (ip), vehicle: saline, higher = larger tumour); 5 % of control (endpoint: mean tumor weight, dose: 0.5 mg/kg/injection, schedule: Q01DX010 (ip), vehicle: saline, higher = larger tumour).
